Laboratory results reported in BigSolDB 2.1.

COC(=O)Nc1ccc(C)c(N)c1
Details	solubility (mole fraction)
in di(2-ethylhexyl) phthalate, 326.55 K	0.032
in di(2-ethylhexyl) phthalate, 333.75 K	0.0422
in di(2-ethylhexyl) phthalate, 341.65 K	0.0522
in di(2-ethylhexyl) phthalate, 349.95 K	0.062
in di(2-ethylhexyl) phthalate, 363.55 K	0.081
in di(2-ethylhexyl) phthalate, 391.85 K	0.0992
in dimethyl carbonate, 306.35 K	0.0339
in dimethyl carbonate, 314.25 K	0.0446
in dimethyl carbonate, 316.75 K	0.0499
in dimethyl carbonate, 320.65 K	0.0552
in dimethyl carbonate, 323.45 K	0.0604
in dimethyl carbonate, 328.25 K	0.0655
in dimethyl carbonate, 334.45 K	0.0706
in dimethyl carbonate, 341.85 K	0.0756

Cc1ccc(N)cc1N
Details	solubility (mole fraction)
in di(2-ethylhexyl) phthalate, 312.45 K	0.061
in di(2-ethylhexyl) phthalate, 324.25 K	0.075
in di(2-ethylhexyl) phthalate, 332.52 K	0.0871
in di(2-ethylhexyl) phthalate, 340.05 K	0.0972
in di(2-ethylhexyl) phthalate, 349.75 K	0.108
in di(2-ethylhexyl) phthalate, 361.55 K	0.127
in dimethyl carbonate, 305.75 K	0.107
in dimethyl carbonate, 310.05 K	0.113
in dimethyl carbonate, 312.85 K	0.116
in dimethyl carbonate, 316.55 K	0.118
in dimethyl carbonate, 317.45 K	0.121
in dimethyl carbonate, 321.35 K	0.124
in dimethyl carbonate, 327.35 K	0.126
in dimethyl carbonate, 333.45 K	0.129

COC(=O)Nc1ccc(C)c(NC(=O)OC)c1
Details	solubility (mole fraction)
in di(2-ethylhexyl) phthalate, 334.25 K	0.167
in di(2-ethylhexyl) phthalate, 346.95 K	0.172
in di(2-ethylhexyl) phthalate, 363.65 K	0.178
in di(2-ethylhexyl) phthalate, 378.65 K	0.186
in di(2-ethylhexyl) phthalate, 389.55 K	0.195
in di(2-ethylhexyl) phthalate, 398.15 K	0.2
in dimethyl carbonate, 307.75 K	0.0087
in dimethyl carbonate, 316.15 K	0.013
in dimethyl carbonate, 324.35 K	0.0173
in dimethyl carbonate, 330.65 K	0.0216
in dimethyl carbonate, 335.85 K	0.0258
in dimethyl carbonate, 339.35 K	0.0299
in dimethyl carbonate, 343.65 K	0.0341
in dimethyl carbonate, 353.15 K	0.0423
in dimethyl carbonate, 360.75 K	0.0503
in dimethyl carbonate, 365.15 K	0.0535
